Results published in patent publication US20040048356A1, “Use of a strain of lactobacillus reducing the risk factors involved in the metabolic syndrome” (priority 2000, published 2004).

Assays:
[1] = clinical trial, Zapolska-Downar et al. 2000; cited from earlier work
PPAR = assay: Effect of propionic acid on PPAR gene expression in vitro (semiquantitative RT-PCR in HUVEC); type: cell-based; conditions: PPAR mRNA in human endothelial cells, percent in relation to GAPDH mRNA (100%)
Experimental: Human umbilical vein endothelial cells, HUVEC, were obtained from umbilical cords by collagenase digestion as described by Jaffe et al. (Biology of Endothelial Cells, Boston, Martinus Nijhoff Publishers, 1984, p. 1-13). In brief, veins of umbilical cords were perfused with PBS to remove blood cells, filled with 0.1% collagenase (type Ia) and left for 10 minutes at 37° C. Suspended HUvEC were supplemented with PBS, centrifuged and cultured at 37° C. in gelatine-coated 25 ml flasks and 6-well tissue culture plates filled with medium 199, under humidified 5% CO2 in room air. Propionic acid was added to the culture medium in the amounts of 0.1, 1.0, and 10.0 mmol/l, and the effect of the acid on the expression of PPAR was determined. Total RNA was extracted from the cells by the method of Chomczynski using TRIZOL (Gibco BRL). After isolation the integrity of the RNA samples was checked by gel electrophoresis in 1% agarose gel stained with ethidium bromide. The concentration of total RNA was calculated after spectrophotometric measurements at 260 nm wavelength. Each RNA sample (500 ng) was incubated with 1 U of DNAse I (Boehringer Mannheim, Germany) for 15 minutes at 37° C., and subsequently DNAse I was inactivated by heating at 75° C. for 3 minutes. Such DNAse-treated RNA (500 ng) was dissolved in 20 μl of a reaction mixture containing 2.5 mM of dATP, dTTP, dCTP, and dGTP (Progmega, USA), 20 U of RNAsin (Promega, USA), 100 pM of random hexamers (Boehringer Mannheim, Germany) and 20 U of MMLV Reverse Transcriptase (Boehringer Mannheim). Incubation was carried out at 37° C. for 60 minutes; the temperature of the reaction was then raised to 94° C. for 5 minutes to inactivate the enzyme and finally dropped to 4° C. […] The intensity of the bands was densitometrically measured with the gel analysis macro supplied with NIH Image. All PPAR signals were normalised to mRNA levels of the housekeeping gene GAPDH and expressed as a ratio. Data are expressed as percent in relation to GAPDH mRNA (100%).

In the case of `CC(C)Cc1ccc(C(C)C(=O)O)cc1` (stereo not shown) [ibuprofen], the HDL cholesterol levels [1] is listed as “increased”.

In the case of `CCC(=O)O` [propionic acid], the “Increase of mRNA, %” value (PPAR; propionic acid 0.1 mmol/l) is reported as 29.3%, the “Increase of mRNA, %” value (PPAR; propionic acid 1.0 mmol/l) is reported as 47.2% and the “Increase of mRNA, %” value (PPAR; propionic acid 10.0 mmol/l) is reported as 89.7%.
